The text below walks through data of patent publication US20190125772A1, “IMPROVED DRUG COMBINATIONS FOR DRUG-RESISTANT AND DRUG-SENSITIVE MULTIPLE MYELOMA” (priority 2015, published 2019).

The test system of assay [1] is Bortezomib-sensitive RPMI 8226 multiple myeloma cells. In words: Inhibitory concentrations (ICx, inhibition of cell growth) of the drugs in FSC-derived optimal combinations, Bortezomib-sensitive multiple myeloma. The format is cell-based. The note with it: concentration of the single drug as used in optimal combinations. From the text:
FIG. 8: Table showing the design of three iterations. IC20 represents 20% inhibitory concentration, which is the dosage of drug for 20% inhibition of cell growth. The first and second iterations are drug screening experiments to remove unfavorable drug candidates.
FIG. 14: Multi-drug optimization experimental assessment of prescribed combinations and output. […] The calculated y from the equation (FIG. 13) is the output as shown here.
In each iteration (experiment run), a list of drug combinations used is based on an experimental design methodology that aims to reduce the number of experiments to obtain sufficient information to build a mathematical equation.
After the list of drug combinations is determined, the drug combinations are applied to an in vitro cellular assay. A healthy control cell (THLE-2) is used to determine liver toxicity caused by drug treatment. Drug efficacy is determined using the B lymphocyte cancer cell (RPMI 8226). Favorable drug combinations would maximize cancer cell killing while minimizing health cell death. […] The experiments are conducted in a rapid, high-throughput manner using an automated liquid handler machine.

In assay [2] the test system is RPMI 8226 (Bortezomib-sensitive) versus THLE-2 healthy control cells. In words: FSC in vitro cellular assay, output = cell viability of THLE-2 minus cell viability of RPMI 8226, with linear regression and response surface maps. The class given is cell-based. The note with it: for drug candidate assessment from two-drug interaction terms: first iteration, interaction coefficients with desirable candidates.
Excerpt: This is expressed as a therapeutic window (% Output) that is the difference in percentage (%) viability between treated multiple myeloma and THLE-2 cells.

As to `Cc1[nH]c2ccccc2c1CCNCc1ccc(/C=C/C(=O)NO)cc1` [Panobinostat, (2E)-N-hydroxy-3-[4-({[2-(2-methyl-1H-indol-3-yl)ethyl]amino}methyl)phenyl]acrylamide], in assay [1], the IC8.75 was ~0.0003239 µM, the IC17.5 was ~0.0005905 µM, the IC26.25 is ~0.0008734 µM and the IC35 was ~1.195 nM. Besides, in assay [1] (listed as Panobinostal), the IC8.75 entry was “IC8.75/[3.239E−4 μM]”, the IC17.5 result was “IC17.5/[5.905E−4 μM]”, the IC26.25 result was “IC26.25/[8.734E−4 μM]” and the IC35 result is “IC35/[1.195E−3 μM]”.

For the compound `CO[C@@]12[C@H](COC(N)=O)C3=C(C(=O)C(C)=C(N)C3=O)N1C[C@@H]1N[C@@H]12` [Mitomycin C], the “drug candidate assessment from two-drug interaction terms” value (shortened to “drug candidate assessment”) in assay [2] (second attempt) is on record as “can be eliminated”.

As to `CC(C)C[C@H](NC(=O)[C@H](CCc1ccccc1)NC(=O)CN1CCOCC1)C(=O)N[C@@H](Cc1ccccc1)C(=O)N[C@@H](CC(C)C)C(=O)[C@@]1(C)CO1` [Carfilzomib, (2S)-N-((S)-1-((S)-4-methyl-1-((R)-2-methyloxiran-2-yl)-1-oxopentan-2-ylcarbamoyl)-2-phenylethyl)-2-((S)-2-(2-morpholinoacetamido)-4-phenylbutanamido)-4-methylpentanamide], the “effect of presence or absence of the drug on the output” value in assay [2] (third iteration, other four drugs kept at 100%) is “does not change the output”.

For `Nc1ncn([C@H]2C[C@H](O)[C@@H](CO)O2)c(=O)n1` [Decitabine, 5-aza-2′-deoxycytidine], the “drug candidate assessment” value in assay [2] (first attempt) was “can be eliminated”.

`O.O=P1(N(CCCl)CCCl)NCCCO1` (stereo not shown) [Cyclophoshamide monohydrate]: the “drug candidate assessment” value in assay [2] (first attempt) and in assay [2] (second attempt) was “can be eliminated” throughout.
